In patent US9133170B2, “Inhibitors of HCV NS5A” (priority 2011, dated 2015):

Test system: GT-1a pRLuc H77 1b 75 S/I subgenomic replicon cell line
Assay: HCV GT-1a subgenomic replicon Renilla luciferase reporter assay
Format: cell-based
Conditions: Hepatitis C virus, GT1A, Huh-7, 72 h, read-out: GT-1a-IC50
Text: Determination of compounds HCV GT1b inhibitory replicon activity using the replicon luciferase reporter assay
The 2209-23 cell line was developed at Roche by stable transfection of the hepatoma cell line Huh-7 with a GT-1b Con1 subgenomic bicistronic replicon as previously described. Subgenomic replicon cell line was established in cured Huh7 cells, obtained from R. Bartenschlager (J Virol. 2003 March; 77 (5):3007-19) The GT-1a H77 subgenomic replicon vector pRLuc H77 1b 75 S/I, was created by replacing the non structural region of the GT-1b Con1 subgenomic replicon by the one of the H77 strain, except for the first 75 amino acids of the NS3 protein that are from GT-1b Con1 strain. (J Virol. 2001 77:5352-59) The GT-1a pRLuc H77 1b 75 S/I subgenomic replicon cell line was established in cured Huh7 cells, obtained from R. Bartenschlager (J Virol. 2003 March; 77 (5):3007-19).
All the subgenomic replicon cell lines were cultured in Dulbecco's Modified Eagle Medium (DMEM-Glutamax™-I; Invitrogen Cat #10569-010). The medium was supplemented with 10% Fetal Bovine Serum (Invitrogen Cat #10082-147), 1% penicillin/streptomycin (Mediatech Cat # 30-002-CI) and 500 μg/ml of G418 (Mediatech Cat #30-234-CI). Cells were maintained at 37° C. in a humidified 5% CO2 atmosphere.
2209-23 cells were plated at a cell density of 5000 cells per well in 96 well plates (Becton Dickinson, Cat #35 3296). Cells were plated in 90 μl of Dulbecco's Modified Eagle Medium (DMEM-Glutamax™-I), (Invitrogen Cat #10569-010) medium was supplemented with 5% Fetal Bovine Serum (Invitrogen Cat #10082-147), 1% penicillin/streptomycin (Mediatech Cat #30-002-CI). The pRluc H77 1b 75 S/I cells were plated in 96-well plate at 3000 cells/well in DMEM-Glutamax™-I containing 5% FBS and 1% penicillin/streptomycin in 90 μl final volume. Cells were allowed to equilibrate for 24 hours at 37° C. and 5% CO2 at which time compounds were added. Compounds (or medium as a control) were added 24 hours post-plating in 3 fold dilutions at a final DMSO concentration of 1% in 10 ul volume. Renilla luciferase reporter signal was read 72 hours after addition of compounds using the Renilla Luciferase Assay System (Promega, cat #E2820). EC50 values were defined as the compound concentration at which a 50% reduction in the levels of renilla luciferase reporter was observed as compared to control samples in the absence of compound and was determined by non-linear fitting of compound dose-response data. The EC50 was approximated if maximum percentage inhibition was less than 90% and more than 70%.

Compound COC(=O)N[C@H](C(=O)N1CCC[C@H]1C(=O)N1CCC[C@H]1C(=O)Nc1ccc(-c2ccc(-c3cnc([C@@H]4CCCN4C(=O)[C@@H](NC(=O)OC)C(C)C)[nH]3)cc2)cc1)C(C)C [Compound I-5, ((S)-1-{(S)-2-[(S)-2-(4′-{2-[(S)-1-((S)-2-Methoxycarbonylamino-3-methyl-butyryl)-pyrrolidin-2-yl]-3H-imidazol-4-yl}-biphenyl-4-ylcarbamoyl)-pyrrolidine-1-carbonyl]-pyrrolidine-1-carbonyl}-2-methyl-propyl)-carbamic acid methyl ester] has an IC50 of 4.87 nM.
COC(=O)N[C@H]1CCc2cccc3c2N(C1=O)[C@H](C(=O)N1CCC[C@H]1C(=O)Nc1ccc(-c2ccc(-c4cnc([C@@H]5CCCN5C(=O)[C@@H](NC(=O)OC)C(C)C)[nH]4)cc2)cc1)C3 [Compound I-1, {(2S,5S)-2-[(S)-2-(4′-{2-[(S)-1-((S)-2-Methoxycarbonylamino-3-methyl-butyryl)-pyrrolidin-2-yl]-3H-imidazol-4-yl}-biphenyl-4-ylcarbamoyl)-pyrrolidine-1-carbonyl]-4-oxo-1,2,4,5,6,7-hexahydro-azepino[3,2,1-hi]indol-5-yl}-carbamic acid methyl ester] showed an IC50 of 8.38 nM.
COC(=O)N[C@H](C(=O)N1CCC[C@H]1c1ncc(-c2ccc(-c3ccc(NC(=O)[C@@H]4CCCN4C(=O)[C@@H]4CCCN4C(=O)[C@H](NC(=O)OC)c4ccccc4)cc3)cc2)[nH]1)C(C)C [Compound I-6, [(S)-1-((S)-2-{5-[4′-({(S)-1-[(S)-1-((R)-2-Methoxycarbonylamino-2-phenyl-acetyl)-pyrrolidine-2-carbonyl]-pyrrolidine-2-carbonyl}-amino)-biphenyl-4-yl]-1H-imidazol-2-yl}-pyrrolidine-1-carbonyl)-2-methyl-propyl]-carbamic acid methyl ester] showed an IC50 of 69.9 nM.
COC(=O)N[C@H]1CCc2cccc3c2N(C1=O)[C@H](C(=O)N1CCC[C@H]1C(=O)Nc1ccc(-c2ccc(-c4[nH]c([C@@H]5CCCN5C(=O)[C@@H](NC(=O)OC)C(C)C)nc4Cl)cc2)cc1)C3 [Compound I-4, {(2S,5S)-2-[(S)-2-(4′-{5-Chloro-2-[(S)-1-((S)-2-methoxycarbonylamino-3-methyl-butyryl)-pyrrolidin-2-yl]-3H-imidazol-4-yl}-biphenyl-4-ylcarbamoyl)-pyrrolidine-1-carbonyl]-4-oxo-1,2,4,5,6,7-hexahydro-azepino[3,2,1-hi]indol-5-yl}-carbamic acid methyl ester] gave an IC50 of 1.38 nM.
COC(=O)N[C@H]1CCc2cccc3c2N(C1=O)[C@H](C(=O)N1CCC[C@H]1C(=O)Nc1ccc(-c2ccc(-c4cnc([C@@H]5CC(F)(F)CN5C(=O)[C@@H](NC(=O)OC)C(C)C)[nH]4)cc2)cc1)C3 [Compound I-3, {(2S,5S)-2-[(S)-2-(4′-{2-[(S)-1-((S)-2-Methoxycarbonylamino-3-methyl-butyryl)-4,4-difluoropyrrolidin-2-yl]-3H-imidazol-4-yl}-biphenyl-4-ylcarbamoyl)-pyrrolidine-1-carbonyl]-4-oxo-1,2,4,5,6,7-hexahydro-azepino[3,2,1-hi]indol-5-yl}-carbamic acid methyl ester] showed an IC50 of 147 nM.
COC(=O)N[C@H]1CCC(=O)N2CCC[C@@H](C(=O)N3CCC[C@H]3C(=O)Nc3ccc(-c4ccc(-c5cnc([C@@H]6CCCN6C(=O)[C@@H](NC(=O)OC)C(C)C)[nH]5)cc4)cc3)N2C1=O [Compound I-2, {(4S,7S)-4-[(S)-2-(4′-{2-[(S)-1-((S)-2-Methoxycarbonylamino-3-methyl-butyryl)-pyrrolidin-2-yl]-3H-imidazol-4-yl}-biphenyl-4-ylcarbamoyl)-pyrrolidine-1-carbonyl]-6,10-dioxo-octahydro-pyridazino[1,2-a][1,2]diazepin-7-yl}-carbamic acid methyl ester] was tested, and the IC50 was 190 nM.
